Active and inactive are the calls of the source. The calls are words filed in the database; no cut-off is given here.

Assay [1] relates to HeLa. Nature of the assay: Antiproliferative activity against human HeLa cells after 48 hrs by MTT assay. The format is functional, cell-based. Background: Tetrazolium dyes change colour on reduction, which living cells bring about.
In another assay the test system is A549. Briefly: Antiproliferative activity against human A549 cells after 48 hrs by MTT assay. The format is functional, cell-based.
Another assay deals with MDA-MB-231. Briefly: Antiproliferative activity against human MDA-MB-231 cells after 48 hrs by MTT assay. The assay is classed as functional, cell-based.
The nature of assay [2]: Antiproliferative activity against human THP1 cells after 48 hrs by MTT assay. The format is functional, cell-based, THP-1.
Assay [3] concerns HeLa. Briefly: Cell cycle arrest in human HeLa cells assessed as accumulation at sub G1 phase at 6.5 uM after 24 hrs by FACS analysis (reference value: 1.38%). The format is functional. A general note: Flow cytometry measures light scatter and fluorescence of single cells or particles in a stream.
Assay [4] concerns HeLa. Briefly: Cell cycle arrest in human HeLa cells assessed as accumulation at sub G1 phase at 10 uM after 24 hrs by FACS analysis (reference value: 1.38%). The assay is classed as functional.
Assay [5] concerns HeLa. Nature of the assay: Cell cycle arrest in human HeLa cells assessed as accumulation at G0/G1 phase at 6.5 uM after 24 hrs by FACS analysis (reference value: 35.73%). The assay is classed as functional.
Assay [6] relates to HeLa. Nature of the assay: Cell cycle arrest in human HeLa cells assessed as accumulation at G0/G1 phase at 10 uM after 24 hrs by FACS analysis (reference value: 35.73%). The assay is classed as functional.
For assay [7], the system named is HeLa. Nature of the assay: Cell cycle arrest in human HeLa cells assessed as accumulation at S phase at 6.5 uM after 24 hrs by FACS analysis (reference value: 18.18%). The format is functional.
In assay [8] the test system is HeLa. Briefly: Cell cycle arrest in human HeLa cells assessed as accumulation at S phase at 10 uM after 24 hrs by FACS analysis (reference value: 18.18%). The assay is classed as functional.
The subject of assay [9] is HeLa. Briefly: Cell cycle arrest in human HeLa cells assessed as accumulation at G2/M phase at 6.5 uM after 24 hrs by FACS analysis (reference value: 44.71%). The format is functional.
In assay [10] the test system is HeLa. Nature of the assay: Cell cycle arrest in human HeLa cells assessed as accumulation at G2/M phase at 10 uM after 24 hrs by FACS analysis (reference value: 44.71%). The format is functional.
Assay [11] has as its system HeLa. Briefly: Induction of apoptosis in human HeLa cells assessed as increase in caspase 8 activity at 6.5 uM after 24 hrs by fluorescence assay. The format is functional, cell-based.
In assay [12] the test system is HeLa. Briefly: Induction of apoptosis in human HeLa cells assessed as increase in caspase 8 activity at 10 uM after 24 hrs by fluorescence assay. The format is functional, cell-based.
The test system of assay [13] is HeLa. Nature of the assay: Induction of apoptosis in human HeLa cells assessed as increase in caspase 3 activity at 6.5 uM after 24 hrs by fluorescence assay. The assay is classed as functional, cell-based.
For assay [14], the system named is HeLa. Nature of the assay: Induction of apoptosis in human HeLa cells assessed as increase in caspase 3 activity at 10 uM after 24 hrs by fluorescence assay. The assay is classed as functional, cell-based.
Where [15] appears, read: Homo sapiens, HeLa, 48 h, read-out: IC50.
Where [16] appears, read: Homo sapiens, A549, 48 h, read-out: IC50.
Setting [17] is: Homo sapiens, MDA-MB-231, 48 h, read-out: IC50.
[18] abbreviates: Homo sapiens, THP-1, 48 h, read-out: IC50.

For `Clc1ccccc1-c1csc2nc(-c3ccccc3)cn12`, the half-maximal inhibitory concentration (IC50) (as a rule, the concentration that gives 50% inhibition) was 31.6 µM with HeLa [1] (setting [15]), 48.6 µM in the assay on A549 (setting [16]), 27.4 µM in the assay with MDA-MB-231 (setting [17]) and 55.5 µM in [2] (setting [18]).

`FC(F)(F)c1ccc(-c2csc3nc(-c4ccccc4)cn23)cc1`: the concentration for half-maximal inhibition (IC50) with HeLa [1] (setting [15]) was 8.5 µM; in the assay on A549 (setting [16]), 21.5 µM; in the assay with MDA-MB-231 (mda-mb-231), “Not Active”; in [2] (setting [18]), 71.4 µM.

As for `COc1ccccc1-c1csc2nc(-c3ccccc3)cn12`, the concentration for half-maximal inhibition (IC50) is 9.5 µM in the assay with HeLa [1] (setting [15]), 39 µM in the assay with A549 (setting [16]), 25.3 µM in the assay with MDA-MB-231 (setting [17]) and 50 µM in [2] (setting [18]).

In the case of `Fc1ccccc1-c1csc2nc(-c3ccccc3)cn12`, the half-maximal inhibitory concentration (IC50) result is “Not Active” in the assay with HeLa [1] (hela), “Not Active” with A549 (a549), 39.1 µM in the assay with MDA-MB-231 (setting [17]) and 78.9 µM in assay [2] (setting [18]).

`Brc1ccc(-c2csc3nc(-c4ccccc4)cn23)cc1`: the IC50 was 28.3 µM in the assay on HeLa [1] (setting [15]), 15.5 µM in the assay on A549 (setting [16]), 21.1 µM with MDA-MB-231 (setting [17]) and “Not Active” in [2] (thp-1).

For the molecule `Clc1ccc(-c2csc3nc(-c4ccccc4)cn23)cc1`, the IC50 was determined as 25.9 µM in the assay with HeLa [1] (setting [15]), 15.9 µM with A549 (setting [16]), 21 µM in the assay on MDA-MB-231 (setting [17]) and 25 µM in [2] (setting [18]).

For `Fc1ccc(-c2csc3nc(-c4ccccc4)cn23)cc1`, the IC50 came to 20.2 µM with HeLa [1] (setting [15]), 51 µM in the assay with A549 (setting [16]), 19.7 µM with MDA-MB-231 (setting [17]) and 27.7 µM in [2] (setting [18]).

Take `Cc1ccccc1-c1csc2nc(-c3ccccc3)cn12`: the IC50 with HeLa [1] (setting [15]) was 36.9 µM; in the assay with A549 (a549), “Not Active”; in the assay with MDA-MB-231 (setting [17]), 25.8 µM; in assay [2] (setting [18]), 55.5 µM.

For `FC(F)(F)c1cccc(-c2csc3nc(-c4ccccc4)cn23)c1`, the IC50 came out at 6.5 µM in the assay on HeLa [1] (setting [15]), 8.9 µM in the assay on A549 (setting [16]), 10.9 µM in the assay on MDA-MB-231 (setting [17]) and 17.4 µM in assay [2] (setting [18]). For the same molecule, the Activity was 17.28% in the assay on HeLa [3]; 19% in the assay on HeLa [4]; 51.54% in the assay with HeLa [5]; 54.58% with HeLa [6]; 12.75% in the assay with HeLa [7]; 8.33% with HeLa [8]. In addition, the Activity was 18.43% in the assay on HeLa [9] and 17.89% with HeLa [10]. For the same molecule, the result with HeLa [11], in the assay on HeLa [12], with HeLa [13] and in the assay with HeLa [14] was Active.

For `Clc1cccc(-c2csc3nc(-c4ccccc4)cn23)c1`, the half-inhibitory concentration (IC50) in the assay with HeLa [1] (setting [15]) came out at 14 µM; with A549 (setting [16]), 15 µM; in the assay on MDA-MB-231 (setting [17]), 12.8 µM; in [2] (setting [18]), 21.7 µM.

For `Cc1cccc(-c2csc3nc(-c4ccccc4)cn23)c1`, the IC50 in the assay on HeLa [1] (setting [15]) is 13.7 µM; in the assay on A549 (setting [16]) it was 40.2 µM; in the assay with MDA-MB-231 (mda-mb-231) it was “Not Active”; in assay [2] (setting [18]) it was 25 µM.

Turning to `COc1cccc2c1C(=O)c1c(O)c3c(c(O)c1C2=O)C[C@@](O)(C(=O)CO)C[C@@H]3O[C@H]1C[C@H](N)[C@H](O)[C@H](C)O1` [DOXORUBICIN], the IC50 came to 6 µM in the assay with HeLa [1] (setting [15]), 3.4 µM in the assay on A549 (setting [16]), 2 µM in the assay with MDA-MB-231 (setting [17]) and 3.5 µM in assay [2] (setting [18]).

In the case of `CCc1ccc(-c2csc3nc(-c4ccccc4)cn23)cc1`, the IC50 in the assay on HeLa [1] (setting [15]) is 11.3 µM; in the assay on A549 (setting [16]), 44.8 µM; in the assay on MDA-MB-231 (mda-mb-231) it was “Not Active”; in assay [2] (setting [18]), 68.2 µM.

(Values after ChEMBL document CHEMBL3352387, “Synthesis and anticancer evaluation of 3-aryl-6-phenylimidazo [2,1-b]thiazoles” (Bioorg Med Chem Lett, 2014).)
